One data set deals with CYP2E1 (Homo sapiens, UniProt P05181). The data set can be described thus: Inhibition of CYP2E1 in human liver microsomes using chlorzoxazone as substrate at 10 uM preincubated for 5 min followed by NADPH addition measured after 120 mins by LC-MS/MS analysis relative to control. The data set is classed as ADME, Microsome. As to conditions: probe chlorzoxazone, time 125 min. (In general: Liver microsomes are vesicles of endoplasmic reticulum, rich in cytochrome P450 enzymes.)

For a further data set, the system named is HT-22. In words: Neuroprotective activity against H2O2-induced oxidative stress in mouse HT-22 cells assessed as cell viability at 10 uM preincubated for 2 hrs followed by H2O2 addition measured after 24 hrs by MTT assay (reference value: 55 +/- 4.6 %). In kind it is functional. As to conditions: time 26 hrs, read-out: Activity. Background: Tetrazolium dyes change colour on reduction, which living cells bring about.

A short description of data set [1]: Clearance male Sprague-Dawley rat at 10 mg/kg, po measured up to 24 hrs by LC-MS/MS analysis. The data set is classed as ADME, organism-based. As to conditions: in vivo.
Data set [2] in a line: MRT (0 to infinity) male Sprague-Dawley rat at 10 mg/kg, po measured up to 24 hrs by LC-MS/MS analysis. The data set is classed as ADME, organism-based. As to conditions: in vivo.
For data set [3], the system named is Rattus norvegicus. In words: Neuroprotective activity in MCAO-induced brain damage Sprague-Dawley rat model assessed as brain infarction size at 5 mg/kg, iv administered immediately after arterial occlusion measured after 24 hrs by TTC staining based analysis (reference value: 43.1 %). In kind it is functional.
For data set [4], the target named is P2Y purinoceptor 1 (Rattus norvegicus) (UniProt P49651). The data set can be described thus: Induction of thermal stabilization of P2Y1 receptor in rat platelet-rich plasma at 10 uM incubated for 30 mins followed by heat exposure at 48 to 62 degreeC for 10 mins by CETSA. As to conditions: time 40.0 min. The data set is classed as cell-free.
Data set [5] is described as follows: AUC in plasma of male Kunming mouse at 10 mg/kg, iv measured for 0.083 to 24 hrs by LC-MS/MS analysis. The data set is classed as ADME, organism-based. As to conditions: time 0.083-24 hrs.
Data set [6] is described as follows: Protein binding in rat brain homogenate at 10 uM incubated for 12 hrs by equilibrium dialysis method. The settings on record: read-out: PB (converted). The data set is classed as ADME, tissue-based. (In equilibrium dialysis only unbound substance equilibrates across the membrane.)
Data set [7] can be described thus: Apparent volume of distribution male Sprague-Dawley rat at 10 mg/kg, iv measured up to 24 hrs by LC-MS/MS analysis. In kind it is ADME, organism-based. As to conditions: in vivo, read-out: Vz.
The subject of data set [8] is Rattus norvegicus. In words: Anti-platelet aggregation in Sprague-Dawley rat assessed as inhibition of ADP-induced platelet aggregation at 10 mg/kg, po measured for 15 mins in presence of 2.5 uM ADP by cell counter analysis relative to control. In kind it is functional. As to conditions: 0.25 h.
Data set [9] in a line: Apparent volume of distribution male Sprague-Dawley rat at 10 mg/kg, po measured up to 24 hrs by LC-MS/MS analysis. The settings on record: in vivo. The data set is classed as ADME, organism-based.
Data set [10] is described as follows: Half life male Sprague-Dawley rat at 10 mg/kg, po measured up to 24 hrs by LC-MS/MS analysis. In kind it is ADME, organism-based. As to conditions: in vivo.
The nature of data set [11]: AUC in brain of male Sprague-Dawley rat at 10 mg/kg, iv measured for 0.083 to 24 hrs by LC-MS/MS analysis. In kind it is ADME, organism-based. As to conditions: in vivo, time 0.083-24 hrs.

Results on two molecules are retold here after ChEMBL document CHEMBL6182910, “Design, Synthesis, and Biological Evaluation of 4-(Difluoromethyl)-1H-imidazole-5-carboxylic Acids/4-(3-Cyanophenoxy)pyrimidine-5-carboxylic Acids as P2Y1 Receptor Antagonists for Ischemic Stroke Treatment” (J Med Chem, 2025).

SMILES strings stand for the structures. Calls of active or inactive are those of the source. The rule behind the calls is not given here.

Sequence of CYP2E1 (P05181 whole entry): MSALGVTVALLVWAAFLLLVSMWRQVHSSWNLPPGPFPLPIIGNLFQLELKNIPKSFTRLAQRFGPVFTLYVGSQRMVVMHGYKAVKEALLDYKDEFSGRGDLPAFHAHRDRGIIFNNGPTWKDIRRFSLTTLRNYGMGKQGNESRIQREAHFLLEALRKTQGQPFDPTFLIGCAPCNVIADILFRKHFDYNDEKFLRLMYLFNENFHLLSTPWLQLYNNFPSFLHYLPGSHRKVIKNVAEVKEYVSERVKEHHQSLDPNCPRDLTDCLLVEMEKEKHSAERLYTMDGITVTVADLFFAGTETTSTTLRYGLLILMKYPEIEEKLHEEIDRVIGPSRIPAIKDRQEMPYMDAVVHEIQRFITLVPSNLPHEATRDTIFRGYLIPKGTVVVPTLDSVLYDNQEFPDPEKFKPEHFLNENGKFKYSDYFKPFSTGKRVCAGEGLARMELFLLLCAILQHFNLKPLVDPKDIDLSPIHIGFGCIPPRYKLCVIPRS
Sequence of P2Y purinoceptor 1 (Rattus norvegicus) (P49651 whole entry): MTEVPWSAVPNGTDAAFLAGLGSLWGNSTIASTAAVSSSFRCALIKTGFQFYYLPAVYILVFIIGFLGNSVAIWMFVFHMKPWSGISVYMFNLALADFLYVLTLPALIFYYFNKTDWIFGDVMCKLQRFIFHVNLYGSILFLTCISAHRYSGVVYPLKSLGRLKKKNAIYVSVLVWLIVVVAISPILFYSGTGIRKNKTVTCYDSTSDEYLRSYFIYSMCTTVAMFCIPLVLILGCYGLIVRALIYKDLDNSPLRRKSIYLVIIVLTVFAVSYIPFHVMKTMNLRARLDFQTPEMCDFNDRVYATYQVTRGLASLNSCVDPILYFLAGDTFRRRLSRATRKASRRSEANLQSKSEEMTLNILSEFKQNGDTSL

Broadly, the inhibition is the share of the control response that was lost under treatment. A high value points to a strong effect. One may read the CL/F as clearance divided by bioavailability, as obtained after extravascular dosing. As usually defined, the MRT inf is the average time that molecules of a dose stay in the body. What is called inhibition in vivo is the drop in the measured response relative to a control, in per cent. Take `N#Cc1cccc(Oc2nc(-c3cccc(C#N)c3)ncc2C(=O)O)c1`: at CYP2E1, the inhibition at 2 h, 10 µM amounted to 36.4%. In addition, the viability at 10 µM in the data set on HT-22 was 94.7%. In [1], this molecule had a CL/F of 169 mL/min/kg. Moreover, the MRT inf in [2] was 18.4 min. Moreover, the Activity in the data set on Rattus norvegicus [3] came out at 21.3%. In addition, in data set [4], the result was Active. In addition, the AUC amounted to 5360 ng·h/mL in data set [5] and 18.55 µg·h/g in [11]. For the same molecule, the fraction unbound at 12 h, 10 µM in [6] is 0.046. Moreover, the Vd in data set [7] was 0.404 L/kg. Besides, in the data set with Rattus norvegicus [8], the inhibition in vivo at 10 mg/kg amounted to 66%. In data set [9], the Vz came to 7.668 L/kg. This molecule returned a t1/2 in [10] of 15.7 min.

For the molecule `N#Cc1cccc(-c2nc(C(F)F)c(C(=O)O)n2OCc2csc(N)n2)c1`, the inhibition at 2 h, 10 µM on CYP2E1 came out at 50.2%. Besides, in the data set on HT-22, the viability at 10 µM is 90.7%. Moreover, the CL/F in data set [1] was found to be 4630 mL/min/kg. The Activity with Rattus norvegicus [3] turned out to be 23.3%. In addition, the result in [4] was Active. For the same molecule, the AUC was 650 ng·h/mL in data set [5] and 1.02 µg·h/g in data set [11]. Further, in data set [6], the fraction unbound at 12 h, 10 µM was 0.092. The Vd in data set [7] came to 0.338 L/kg. Moreover, in the data set on Rattus norvegicus [8], the inhibition in vivo at 10 mg/kg was 54.5%.
